In paper PMC11945486, “TAS1R2/TAS1R3 Single-Nucleotide Polymorphisms Affect Sweet Taste Receptor Activation by Sweeteners: The SWEET Project” (Nutrients, 2025):
No end group written: not given here.

T1: human TAS1R2-WT/TAS1R3-L95P (Homo sapiens, UniProt Q7RTX0+Q8TE23, L95P)
T1 construct: expressed in transfected cells; host or cells: HEK293T stably expressing Gα16gust44
T1 sequence (Q8TE23 20-839): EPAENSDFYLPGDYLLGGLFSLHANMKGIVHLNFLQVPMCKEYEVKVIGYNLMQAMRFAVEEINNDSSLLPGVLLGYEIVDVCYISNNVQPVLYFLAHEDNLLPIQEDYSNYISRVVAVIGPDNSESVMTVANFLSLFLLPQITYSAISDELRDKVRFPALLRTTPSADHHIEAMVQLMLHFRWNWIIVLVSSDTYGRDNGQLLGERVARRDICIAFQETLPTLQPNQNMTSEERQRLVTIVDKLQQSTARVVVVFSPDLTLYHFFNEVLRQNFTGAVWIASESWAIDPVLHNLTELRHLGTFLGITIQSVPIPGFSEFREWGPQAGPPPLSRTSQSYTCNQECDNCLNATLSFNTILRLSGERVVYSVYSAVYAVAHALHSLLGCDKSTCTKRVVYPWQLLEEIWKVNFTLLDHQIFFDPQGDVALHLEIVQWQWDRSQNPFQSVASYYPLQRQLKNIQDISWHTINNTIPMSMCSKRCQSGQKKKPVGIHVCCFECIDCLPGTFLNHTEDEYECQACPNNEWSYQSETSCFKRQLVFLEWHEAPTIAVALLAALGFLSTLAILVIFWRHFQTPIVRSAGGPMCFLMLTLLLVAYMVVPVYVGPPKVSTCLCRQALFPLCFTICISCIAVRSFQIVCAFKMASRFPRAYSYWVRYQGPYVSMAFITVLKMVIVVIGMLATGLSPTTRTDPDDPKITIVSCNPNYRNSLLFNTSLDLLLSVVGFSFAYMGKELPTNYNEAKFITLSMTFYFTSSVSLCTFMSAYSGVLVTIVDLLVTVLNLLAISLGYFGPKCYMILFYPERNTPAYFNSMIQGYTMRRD
T1 sequence (Q7RTX0 21-852 L95P): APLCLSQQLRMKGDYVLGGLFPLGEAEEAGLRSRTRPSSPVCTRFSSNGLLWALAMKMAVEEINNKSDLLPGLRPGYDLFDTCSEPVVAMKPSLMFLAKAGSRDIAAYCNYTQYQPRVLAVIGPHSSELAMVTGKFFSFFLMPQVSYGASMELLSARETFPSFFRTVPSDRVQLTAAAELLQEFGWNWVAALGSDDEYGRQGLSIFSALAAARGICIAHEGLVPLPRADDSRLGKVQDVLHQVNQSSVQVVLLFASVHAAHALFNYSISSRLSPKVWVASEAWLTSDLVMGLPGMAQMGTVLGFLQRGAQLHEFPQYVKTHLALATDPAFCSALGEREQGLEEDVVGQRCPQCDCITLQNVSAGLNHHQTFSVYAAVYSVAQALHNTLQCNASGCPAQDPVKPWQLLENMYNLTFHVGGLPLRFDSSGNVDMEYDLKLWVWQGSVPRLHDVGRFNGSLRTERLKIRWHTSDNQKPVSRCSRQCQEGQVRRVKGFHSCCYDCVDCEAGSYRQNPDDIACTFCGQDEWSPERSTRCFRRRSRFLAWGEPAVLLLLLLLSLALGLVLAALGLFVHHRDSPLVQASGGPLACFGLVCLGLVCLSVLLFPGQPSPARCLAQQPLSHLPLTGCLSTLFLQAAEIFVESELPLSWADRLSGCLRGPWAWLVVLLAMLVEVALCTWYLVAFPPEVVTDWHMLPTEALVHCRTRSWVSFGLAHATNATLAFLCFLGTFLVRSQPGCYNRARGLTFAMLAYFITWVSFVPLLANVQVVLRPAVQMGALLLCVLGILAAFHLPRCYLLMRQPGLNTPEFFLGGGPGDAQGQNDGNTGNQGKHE


Molecular target: T1, human TAS1R2-WT/TAS1R3-L95P
Experiment: Calcium mobilisation assay, TAS1R2-WT with TAS1R3 variant L95P
Assay type: cell-based
Conditions: for Max ΔF/F0: maximal signal amplitude; for Max ΔF/F0 / EC50: "-": no activation
Excerpt: The coding sequences for TAS1R2 and TAS1R3 were commercially synthesised, and the human codon was optimised for expression in human cells. The coding sequences of human TAS1R2 and TAS1R3 were subcloned and inserted into the mammalian expression vectors pcDNA6/myc-HisA and pcDNA4/myc-HisA (Invitrogen; Thermo Fisher Scientific; Illkirch, France) between the EcoRI and NotI restriction sites, generating the plasmids pcDNA6-TAS1R2 and pcDNA4-TAS1R3, respectively. To increase protein expression in mammalian cells, an upstream start codon was used, which was a sequence called MAX, corresponding to the QBI SP163 element also described in pcDNA4-HisMax (Invitrogen; Thermo Fisher Scientific; Illkirch, France). To measure the expression level of the receptor by immunohistochemistry, we used the FLAG sequence ([…]) in the C-terminal position, which encodes the FLAG tag epitope. SNP variants of TAS1R2 and TAS1R3 were constructed based on […], respectively, using site-directed mutagenesis (Genewiz; Leipzig, Germany).
The HEK293T cells were kindly provided by Jay P. Slack (Givaudan Flavors Corporation; Cincinnati, OH, USA). HEK293T cells stably transfected with Gα16gust44 [43, 67] were seeded in poly-D-lysine-coated clear-bottom black 96-well plates (0.35 × 10^5 cells/well) in high-glucose DMEM supplemented with 2 mM GlutaMAX, 10% dialysed foetal bovine serum with penicillin/streptomycin and G418 (400 μg/mL) at 37 °C and 6.3% CO2 in a humidified atmosphere as previously reported. […] As a negative control, HEK293T cells were mock-transfected with the empty expression vector. After a further 24 h of incubation, the HEK293T cells were washed with C1 buffer (130 mM NaCl, 5 mM KCl, 10 mM HEPES pH 7.4 and 2 mM CaCl2). The 96-well plates containing the cells were then stimulated with sweet-tasting compounds. […] Different concentration ranges were tested depending on the sweet compound injected. The Ca^2+ changes were expressed as fractional changes in fluorescent light intensity: ΔF/F = (F − F0)/F0, where F was the fluorescent light intensity at each point, and F0 was the value of emitted fluorescent light prior to stimulus application. To calculate dose–response relationships, the changes in fluorescence upon stimulus application were averaged, mock-subtracted and baseline-corrected. The dose–response data obtained were adjusted using a 4-parameter logistic equation. The half-maximal effective concentrations (EC50 values) and maximal signal amplitudes were calculated using SigmaPlot software (version 15.0) (Systat Software; San Jose, CA, USA).
For in vitro calcium mobilisation assay performed on hTAS1R2-SNPs, hTAS1R3-SNPs and mTAS1R3-I60T, 6 to 7 concentrations were tested for each sweet compound, plus buffer alone. All concentration–receptor combinations were measured in duplicate, and each experiment was repeated at least 4 times (8 wells/concentration). Results were expressed for each concentration as ΔF/F mean ± SEM and represented as dose–response curves.

Molecule	R1 = Variant EC50/WT EC50	Max ΔF/F0	EC50 [µM]
C[C@H](CC[C@@H](O[C@@H]1O[C@H](CO[C@@H]2O[C@H](CO)[C@@H](O)[C@H](O)[C@H]2O)[C@@H](O)[C@H](O)[C@H]1O[C@@H]1O[C@H](CO)[C@@H](O)[C@H](O)[C@H]1O)C(C)(C)O)[C@H]1CC[C@@]2(C)[C@@H]3CC=C4[C@@H](CC[C@H](O[C@@H]5O[C@H](CO[C@@H]6O[C@H](CO)[C@@H](O)[C@H](O)[C@H]6O)[C@@H](O)[C@H](O)[C@H]5O)C4(C)C)[C@]3(C)[C@H](O)C[C@]12C [Mogroside V, mogroside V]	8.4	0.08	–
C=C(C)[C@@H]1CC=C(/C=N/O)CC1 [Perillartine, perillartine]	2.5	0.14 ± 0.02	33.9 ± 2.8
brazzein (QDKCKKVYENYPVSKCQLANQCNYDCKLDKHARSGECFYDEKRNLQCICDYCEY; ends and bridges not checked; cysteine pairing not given here; UniProt P56552 1-54, looked up) [sweet-tasting protein obtained by recombinant production using the yeast Pichia pastoris]	19.3	0.10 ± 0.05	–

Further lines, results first:

R1 = Variant EC50/WT EC50	Max ΔF/F0	EC50 [µM]	Molecule
2.6	0.89 ± 0.01	–	thaumatin
–	–	27.4 ± 5.8	thaumatin (protein, Eight disulfides, sweet-tasting plant protein, E957) ATFEIVNRCSYTVWAAASKGDAALDAGGRQLNSGESWTINVEPGTKGGKIWARTDCYFDDSGSGICKTGDCGGLLRCKRFGRPPTTLAEFSLNQYGKDYIDISNIKGFNVPMDFSPTTRGCRGVRCAADIVGQCPAKLKAPGGGCNDACTVFQTSEYCCTTGKCGPTEYSRFFKRLCPDAFSYVLDKPTTVTCPGSSNYRVTFCPTA
